In article PMC4632126, “High specific selectivity and Membrane-Active Mechanism of the synthetic centrosymmetric α-helical peptides with Gly-Gly pairs” (Scientific Reports, 2015):
≈ marks a conversion by molar mass, not a printed value. Like-named read-outs stand apart in the source and are kept apart here. Where no end group is shown, it is not given here.

Tests used:
E. coli ATCC 25922 [1] = type: cell-based, Escherichia coli
Protocol: (§1) Minimal bactericidal concentrations (MBCs) were measured using the method which has been adopted from National Committee for Clinical Laboratory Standards (NCCLS), with modifications. In short, 50 μL peptide solutions were pipetted into microtiter plates at various concentrations ranging from 1 to 128 μM. Freshly grown bacteria were added to the each well in a density of 0.5–1 × 10^6 CFUmL^−1. Microtiter plated was incubated at 37 °C for 5 h. Fifty microliters of each incubation mixture was further serially diluted (up to 10^−3 of the initial bacterial concentration), transferred on agar plates and incubated overnight. On the following day, the number of colonies was evaluated and the initial CFU/well retrospectively calculated. The minimum bactericidal concentrations (μM) were determined as the lowest concentration of the peptides that prevented more than 99.9% bacteria growth.

E. coli UB1005 = type: cell-based, Escherichia coli
Protocol: as §1

S. typhimurium ATCC14028 = type: cell-based, Salmonella typhimurium
Protocol: as §1

S. aureus ATCC29213 = type: cell-based, Staphylococcus aureus
Protocol: as §1

[2] = test system: 3 gram-negative strains tested; test: Geometric mean of MBCs and therapeutic index, gram-negative strains; type: cell-based; details: >128 counted as 256 μM; for TI (therapeutic index), gram-negative: MHC/GM for 3 gram-negative strains
Protocol: as §1, with “In” for “Minimal bactericidal concentrations (MBCs) were measured using the method which has been adopted from National Committee for Clinical Laboratory Standards (NCCLS), with modifications. In”
(§2) The therapeutic index (TI) is calculated by the ration of the minimum hemolytic concentration (MHC) to the geometric mean of the MBC (GM) to evaluate cell selectivity of peptides.

[3] = test system: 3 gram-positive strains tested; details: >128 counted as 256 μM; for TI (therapeutic index), gram-positive: MHC/GM for 3 gram-positive strains
Protocol: as §1, with “In” for “Minimal bactericidal concentrations (MBCs) were measured using the method which has been adopted from National Committee for Clinical Laboratory Standards (NCCLS), with modifications. In”
as §2

[4] = test system: all of the 6 strains tested; test: Geometric mean of MBCs and therapeutic index, all strains; type: cell-based; details: >128 counted as 256 μM; for TI (therapeutic index), all strains: MHC/GM for all 6 strains
Protocol: as §1, with “In” for “Minimal bactericidal concentrations (MBCs) were measured using the method which has been adopted from National Committee for Clinical Laboratory Standards (NCCLS), with modifications. In”
as §2

E. coli ATCC 25922 [5] = test: Flow cytometry, membrane integrity by PI staining; type: cell-based, Escherichia coli; details: peptide at 1 × MBC, PI 10 μg mL^−1, 30 min at 4 °C
Protocol: The membrane damage was determined by flow cytometry. Briefly, E. coli ATCC 25922 was grown to mid-log phase in MHB at 37 °C, harvested by centrifugation at 1,000 × g for 10 min, washed thrice with PBS and diluted to 10^5 CFU mL^−1 in the same buffer. The peptides at the concentrations of 1 × MBCs were incubated with the bacterial suspension at a fixed PI concentration of 10 μg mL^−1 for 30 min at 4 °C, and followed by the removal of the unbound dye through washing with an excess of PBS. A Fluorescence Activated Cell Sorter (FACS) flow cytometer (Becton–Dickinson, USA) was used to obtain the data with a laser excitation wavelength of 488 nm.

S. epidermidis ATCC12228 = type: cell-based, Staphylococcus epidermidis; details: ATCC12228, 5 h
Protocol: In short, 50 μL peptide solutions were pipetted into microtiter plates at various concentrations ranging from 1 to 128 μM. Freshly grown bacteria were added to the each well in a density of 0.5–1 × 10^6 CFUmL^−1. Microtiter plated was incubated at 37 °C for 5 h. Fifty microliters of each incubation mixture was further serially diluted (up to 10^−3 of the initial bacterial concentration), transferred on agar plates and incubated overnight. On the following day, the number of colonies was evaluated and the initial CFU/well retrospectively calculated. The minimum bactericidal concentrations (μM) were determined as the lowest concentration of the peptides that prevented more than 99.9% bacteria growth. Each test was reproduced at least 3 times using 6 replicates.

[6] = test system: human red blood cells (hRBCs); details: red cells of human, 1 h
Protocol: (§3) The hemolytic activity of each peptide was evaluated using a modified method, as described previously[21][22]. […] Then, the collected hRBCs were washed three times with PBS (pH 7.2), centrifuged at 1000 × g for 5 min, and resuspended in PBS (final concentration, approximately 1%). Next, 50 μL of the hRBC suspension was placed into a 96-well cell culture plate with 50 μL of test peptide solution in PBS at different concentrations, and the mixture was incubated at 37 °C for 1 h. After incubation, the plate was centrifuged at 1000 × g for 5 min, the supernatant was transferred to a new 96-well cell culture plate, and the release of hemoglobin was measured by monitoring optical density (OD) at 576 nm. Untreated hRBCs suspension was used as a negative control, and the hRBCs treated with 0.1% Triton X-100 were employed as positive controls. Each test was reproduced at least 3 times using 6 replicates. Percent hemolysis was calculated using the following equation:

E. coli ATCC 25922 [7] = type: cell-based, Escherichia coli; remark: listed apart in the source
Protocol: as §1, with “In short, 50 μL peptide solutions were pipetted into microtiter plates at various concentrations ranging from 1 to 128 μM.” left out, “growth. […] The salt sensitivity of the peptides was measured using a modified method, as described previously. […] The subsequent steps were consistent with the MBCs determination method.” for “growth.”

[8] = test system: Methicillin-resistant S. aureus ATCC 43300; details: S. aureus 43300 (methicillin-resistant); lowest concentration preventing more than 99.9% growth; 37 °C, 5 h; representative of three trials
Protocol: as §1, with “In” for “Minimal bactericidal concentrations (MBCs) were measured using the method which has been adopted from National Committee for Clinical Laboratory Standards (NCCLS), with modifications. In”

S. aureus ATCC 29213 = type: cell-based, Staphylococcus aureus; details: ATCC 29213, 5 h
Protocol: as §1, with “In short, 50 μL peptide solutions were pipetted into microtiter plates at various concentrations ranging from 1 to 128 μM.” left out, “growth. […] The salt sensitivity of the peptides was measured using a modified method, as described previously. […] The subsequent steps were consistent with the MBCs determination method.” for “growth.”

E. coli ATCC 25922 [9] = type: cell-based, Escherichia coli; details: ATCC 25922, 24 h
Protocol: The checkerboard titration method is commonly used to evaluate the synergy of different antibacterial combinations. First, 2-fold serial dilutions of the antibiotics and antimicrobial peptides were prepared. Subsequently, 50 μL each of different concentrations of antibiotics and of antimicrobial peptides was mixed and added into 100 μL of bacterial solution (containing approximately 0.5–1 × 10^6 CFU mL^−1) in each well of a 96-well plate. The plates were then incubated at 37 °C for 24 h. The subsequent steps were consistent with the MBCs determination method. The fractional inhibitory concentration (FIC) index (FICI) was calculated as follows: An FICI < 0.5 is considered to indicate synergy; 0.5 < FICI < 1.0 is considered additive; 1.0 < FICI < 4.0 is considered indifferent; and an FICI > 4.0 is considered antagonism.

[10] = test system: human red blood cells (hRBCs); test: Hemolytic activity; details: concentration causing 5% hemolysis of human red blood cells; about 1% hRBC in PBS, 37 °C, 1 h, OD 576 nm
Protocol: as §3

[11] = biological target: the molecule itself; test: FRET or BRET; FAM-labeled GG3 (donor) with TAMRA-labeled GG3 (acceptor) and unlabeled GG3, in POPG or POPC/POPG (3:1) vesicles; total peptide and FAM-peptide concentrations kept constant, mole fraction of TAMRA-peptide varied; 10 mM Tris, 150 mM NaCl, 0.1 mM EDTA, pH 7.4; excitation 492 nm; membrane-bound state

CC[C@H](C)[C@H](NC(=O)CN)C(=O)NCC(=O)N[C@@H](C)C(=O)N[C@H](C(=O)N[C@@H](CC(C)C)C(=O)N[C@@H](CCCCN)C(=O)N[C@H](C(=O)N[C@@H](CC(C)C)C(=O)N[C@H](C(=O)N[C@H](C(=O)NCC(=O)N[C@@H](CC(C)C)C(=O)N1CCC[C@H]1C(=O)N[C@@H](C)C(=O)N[C@@H](CC(C)C)C(=O)N[C@H](C(=O)N[C@@H](CO)C(=O)N[C@@H](Cc1c[nH]c2ccccc12)C(=O)N[C@H](C(=O)N[C@@H](CCCCN)C(=O)N[C@@H](CCCNC(=N)N)C(=O)N[C@@H](CCCCN)C(=O)N[C@@H](CCCNC(=N)N)C(=O)N[C@@H](CCC(N)=O)C(=O)N[C@@H](CCC(N)=O)C(N)=O)[C@@H](C)CC)[C@@H](C)CC)[C@@H](C)O)[C@@H](C)O)C(C)C)C(C)C [Melittin, reference compound]
Minimum bactericidal concentration (E. coli ATCC 25922 [1]; E. coli 25922, lowest concentration preventing more than 99.9% growth, 37 °C, 5 h, representative of three trials): 2 µM (≈ 5.69 µg/mL)
Minimum bactericidal concentration (E. coli UB1005; E. coli 1005, lowest concentration preventing more than 99.9% growth, 37 °C, 5 h, representative of three trials): 2 µM (≈ 5.69 µg/mL)
Minimum bactericidal concentration (S. typhimurium ATCC14028; S. typhimurium 14028, lowest concentration preventing more than 99.9% growth, 37 °C, 5 h, representative of three trials): 2 µM (≈ 5.69 µg/mL)
Minimum bactericidal concentration (S. aureus ATCC29213; S. aureus 29213, lowest concentration preventing more than 99.9% growth, 37 °C, 5 h, representative of three trials): 8 µM (≈ 22.8 µg/mL)
GM (geometric mean of MBCs), Gram (−) ([2]; 3 gram-negative strains): 2 µM
GM (geometric mean of MBCs), Gram (+) ([3]; 3 gram-positive strains): 2 µM
GM (geometric mean of MBCs), Gram (+, −) ([4]; all 6 strains): 2 µM
percentage of PI-positive cells (E. coli ATCC 25922 [5]): 99.0%

AKLWLKA-NH2 [AA1]
Minimum bactericidal concentration (E. coli ATCC 25922 [1]; ATCC 25922, 5 h): >128 µM
Minimum bactericidal concentration (E. coli UB1005; UB1005, 5 h): >128 µM
Minimum bactericidal concentration (S. typhimurium ATCC14028; ATCC14028, 5 h): >128 µM
Minimum bactericidal concentration (S. aureus ATCC29213; ATCC 29213, 5 h): >128 µM
Minimum bactericidal concentration (S. epidermidis ATCC12228): >128 µM
MHC (minimum hemolytic concentration) [6]: >128 µM

GKLWGLKGKLWGLKGKLWGLK-NH2 [GG3s1]
Minimum bactericidal concentration (E. coli ATCC 25922 [1]; ATCC 25922, 5 h): 4 µM
Minimum bactericidal concentration (E. coli UB1005; UB1005, 5 h): 4 µM
Minimum bactericidal concentration (S. typhimurium ATCC14028; ATCC14028, 5 h): 16 µM
Minimum bactericidal concentration (S. aureus ATCC29213; ATCC 29213, 5 h): 128 µM
Minimum bactericidal concentration (S. epidermidis ATCC12228): 128 µM
TI (therapeutic index), gram-negative [2]: 40.31
TI (therapeutic index), gram-positive [3]: 2
TI (therapeutic index), all strains [4]: 8.98
MHC (minimum hemolytic concentration) [6]: >128 µM

GKLWLKG-NH2 [GG1]
Minimum bactericidal concentration (E. coli ATCC 25922 [1]; ATCC 25922, 5 h): >128 µM
Minimum bactericidal concentration (E. coli UB1005; UB1005, 5 h): >128 µM
Minimum bactericidal concentration (S. typhimurium ATCC14028; ATCC14028, 5 h): >128 µM
Minimum bactericidal concentration (S. aureus ATCC29213; ATCC 29213, 5 h): >128 µM
Minimum bactericidal concentration (S. epidermidis ATCC12228): >128 µM
MBC with FeCl3 (E. coli ATCC 25922 [7]; E. coli ATCC 25922, 4 μM FeCl3): >128 µM
MBC with NH4Cl (E. coli ATCC 25922 [7]; E. coli ATCC 25922, 6 μM NH4Cl): >128 µM
MBC with ZnCl2 (E. coli ATCC 25922 [7]; E. coli ATCC 25922, 8 μM ZnCl2): >128 µM
MBC with MgCl2 (E. coli ATCC 25922 [7]; E. coli ATCC 25922, 1 mM MgCl2): >128 µM
MBC with CaCl2 (E. coli ATCC 25922 [7]; E. coli ATCC 25922, 2 mM CaCl2): >128 µM
MBC with KCl (E. coli ATCC 25922 [7]; E. coli ATCC 25922, 4.5 mM KCl): >128 µM
MBC with NaCl (E. coli ATCC 25922 [7]; E. coli ATCC 25922, 150 mM NaCl): >128 µM
MBC, control (E. coli ATCC 25922 [7]; E. coli ATCC 25922, without physiological salts): >128 µM
MHC (minimum hemolytic concentration) [6]: >128 µM

GKLWLKGGKLWLKGGKLWLKG-NH2 [GG3]
Minimum bactericidal concentration (E. coli ATCC 25922 [1]; ATCC 25922, 5 h): 2 µM
Minimum bactericidal concentration (E. coli UB1005; UB1005, 5 h): 2 µM
Minimum bactericidal concentration (S. typhimurium ATCC14028; ATCC14028, 5 h): 4 µM
Minimum bactericidal concentration (S. aureus ATCC29213; ATCC 29213, 5 h): 16 µM
Minimum bactericidal concentration [8]: 32 µM
Minimum bactericidal concentration (S. epidermidis ATCC12228): 32 µM
TI (therapeutic index), gram-negative [2]: 101.59
TI (therapeutic index), gram-positive [3]: 10.08
TI (therapeutic index), all strains [4]: 32
MBC with CaCl2 (E. coli ATCC 25922 [7]; ATCC 25922, 5 h): 2 µM
MBC with FeCl3 (E. coli ATCC 25922 [7]; ATCC 25922, 5 h): 1 µM
MBC with KCl (E. coli ATCC 25922 [7]; ATCC 25922, 5 h): 2 µM
MBC with MgCl2 (E. coli ATCC 25922 [7]; ATCC 25922, 5 h): 2 µM
MBC with NH4Cl (E. coli ATCC 25922 [7]; ATCC 25922, 5 h): 2 µM
MBC with NaCl (E. coli ATCC 25922 [7]; ATCC 25922, 5 h): 2 µM
MBC with ZnCl2 (E. coli ATCC 25922 [7]; ATCC 25922, 5 h): 2 µM
MBC, control (E. coli ATCC 25922 [7]; ATCC 25922, 5 h): 2 µM
MBC with CaCl2 (S. aureus ATCC 29213): 16 µM
MBC with FeCl3 (S. aureus ATCC 29213): 16 µM
MBC with KCl (S. aureus ATCC 29213): 8 µM
MBC with MgCl2 (S. aureus ATCC 29213): 16 µM
MBC with NH4Cl (S. aureus ATCC 29213): 16 µM
MBC with NaCl (S. aureus ATCC 29213): 16 µM
MBC with ZnCl2 (S. aureus ATCC 29213): 16 µM
MBC, control (S. aureus ATCC 29213): 16 µM
FIC index in combination with Ceftazidime (E. coli ATCC 25922 [9]): 0.75
FIC index in combination with Chloramphenicol (E. coli ATCC 25922 [9]): 1
FIC index in combination with Ciprofloxacin (E. coli ATCC 25922 [9]): 1
FIC index in combination with Streptomycin (E. coli ATCC 25922 [9]): 0.5
MHC (minimum hemolytic concentration) [10]: >128 µM

B1: Gly-rich centrosymmetric peptide GG3 (peptide)
peptide: GKLWLKGGKLWLKGGKLWLKG-NH2
modifications: not fully specified
notes: designed peptide from the template (y+hhh+y)n, three repeats of GKLWLKG; In the FRET experiment, FAM-labeled, TAMRA-labeled and unlabeled GG3 were mixed on lipid vesicles; also called FAM-labeled GG3; TAMRA-labeled GG3; source: synthetic peptide (GL Biochem Corporation, Shanghai)
binding result [11]: binds
